Data set [1] can be described thus: Inhibition of Saccharomyces cerevisiae CGMCC2.145 chitin synthase […] by TMB based microplate reader analysis.
The subject of data set [2] is Candida albicans. Put plainly: Antifungal activity against Candida albicans ATCC 76615 assessed as inhibition of cell wall synthesis incubated for 24 hrs in absence of sorbitol. The format is functional.
Data set [3] has as its system Aspergillus flavus. Put plainly: Antifungal activity against Aspergillus flavus ATCC 16870 assessed as inhibition of cell wall synthesis incubated for 24 hrs in presence of sorbitol. The format is functional.
Data set [4] concerns Aspergillus flavus. In words: Synergistic antifungal activity against Aspergillus flavus ATCC 16870 assessed as fractional inhibitory concentration index incubated for 24 hrs in presence of fluconazole by checkerboard broth microdilution method. The format is functional. For orientation: Dilution methods test growth across graded concentrations, often in twofold steps.
The test system of data set [5] is Cryptococcus neoformans. In words: Antifungal activity against Cryptococcus neoformans ATCC 32719 assessed as inhibition of cell wall synthesis incubated for 24 hrs in absence of sorbitol. The format is functional.
The test system of data set [6] is Candida albicans. In words: Antifungal activity against Micafungin-resistant Candida albicans ATCC 76615R assessed as fungal growth inhibition. It counts as functional.
For data set [7], the system named is Cryptococcus neoformans. In words: Antifungal activity against Fluconazole-resistant Cryptococcus neoformans ATCC 32719R assessed as fungal growth inhibition. The format is functional.
Another data set has as its system A549. Put plainly: Cytotoxicity against human A549 cells assessed as cell viability incubated for 24 hrs at 128 ug/ml by CCK-8 assay relative to control. As to conditions: dose 128 µg/ml. (In general: Tetrazolium dyes change colour on reduction, which living cells bring about.)
For data set [8], the system named is Candida albicans. In words: Synergistic antifungal activity against Candida albicans ATCC 76615 assessed as fractional inhibitory concentration index incubated for 24 hrs in presence of fluconazole by checkerboard broth microdilution method. The format is functional.
Data set [9] concerns Aspergillus fumigatus. Put plainly: Synergistic antifungal activity against Aspergillus fumigatus GIMCC 3.19 assessed as polyoxin B MIC incubated for 24 hrs by checkerboard broth microdilution method. It counts as functional.
In data set [10] the test system is Cryptococcus neoformans. In words: Antifungal activity against Cryptococcus neoformans ATCC 32719 assessed as inhibition of cell wall synthesis incubated for 24 hrs in presence of sorbitol. It counts as functional.
In data set [11] the test system is Cryptococcus neoformans. Put plainly: Synergistic antifungal activity against Cryptococcus neoformans ATCC 32719 assessed as fractional inhibitory concentration index incubated for 24 hrs in presence of polyoxin B by checkerboard broth microdilution method. The format is functional.
The test system of data set [12] is Candida albicans. Put plainly: Antifungal activity against Fluconazole-resistant Candida albicans ATCC 76615R assessed as fungal growth inhibition. It counts as functional.
The subject of data set [13] is Aspergillus fumigatus. In words: Antifungal activity against Aspergillus fumigatus GIMCC 3.19 assessed as inhibition of cell wall synthesis incubated for 24 hrs in presence of sorbitol. The format is functional.
The test system of data set [14] is Candida albicans. Put plainly: Synergistic antifungal activity against Candida albicans ATCC 76615 assessed as fractional inhibitory concentration index incubated for 24 hrs in presence of polyoxin B by checkerboard broth microdilution method. The format is functional.
Data set [15] concerns Candida albicans. In words: Synergistic antifungal activity against Candida albicans ATCC 76615 assessed as polyoxin B MIC incubated for 24 hrs by checkerboard broth microdilution method. It counts as functional.
Data set [16] deals with Aspergillus flavus. In words: Antifungal activity against Aspergillus flavus ATCC 16870 assessed as inhibition of cell wall synthesis incubated for 24 hrs in absence of sorbitol. It counts as functional.
The subject of data set [17] is Aspergillus flavus. In words: Synergistic antifungal activity against Aspergillus flavus ATCC 16870 assessed as fractional inhibitory concentration index incubated for 24 hrs in presence of polyoxin B by checkerboard broth microdilution method. It counts as functional.
Data set [18] is described as follows: Cytotoxicity against human A549 cells assessed as cell viability at 4 ug/ml incubated for 24 hrs by CCK-8 assay relative to control. The format is toxicity, cell-based. As to conditions: at 4 µg/mL, read-out: Activity.
Data set [19] deals with Candida tropicalis. In words: Non competitive inhibition of Candida tropicalis ATCC 750 chitin synthase using UDP-GlcNAc as substrate assessed as decrease in Vmax with constant Km at 0.05 to 0.15 mM incubated for 1 hr by Michaelis-Menten analysis. The note with it: dose 0.05-0.15 mM.
In data set [20] the test system is Cryptococcus neoformans. Put plainly: Synergistic antifungal activity against Cryptococcus neoformans ATCC 32719 assessed as fractional inhibitory concentration index incubated for 24 hrs in presence of fluconazole by checkerboard broth microdilution method. It counts as functional.
The subject of data set [21] is Aspergillus flavus. In words: Synergistic antifungal activity against Aspergillus flavus ATCC 16870 assessed as fluconazole MIC incubated for 24 hrs in by checkerboard broth microdilution method. The format is functional.
The subject of data set [22] is Candida tropicalis. Put plainly: Non competitive inhibition of Candida tropicalis ATCC 750 chitin synthase using UDP-GlcNAc as substrate assessed as Km at 0.05 to 0.15 mM incubated for 1 hr by Michaelis-Menten analysis. The note with it: dose 0.05-0.15 mM.
Data set [23] relates to Candida albicans. Put plainly: Synergistic antifungal activity against Candida albicans ATCC 76615 assessed as fluconazole MIC incubated for 24 hrs in by checkerboard broth microdilution method. It counts as functional.
For data set [24], the system named is Aspergillus flavus. In words: Synergistic antifungal activity against Aspergillus flavus ATCC 16870 assessed as polyoxin B MIC incubated for 24 hrs by checkerboard broth microdilution method. It counts as functional.
Data set [25] has as its system Cryptococcus neoformans. In words: Antifungal activity against Cryptococcus neoformans ATCC 32719 assessed as fungal growth inhibition incubated for 24 hrs by two-fold serial dilution method. The format is functional.
The subject of data set [26] is Aspergillus fumigatus. In words: Antifungal activity against Fluconazole-resistant Aspergillus fumigatus GIMCC 3.19R assessed as fungal growth inhibition. It counts as functional.
Data set [27] has as its system Aspergillus fumigatus. Put plainly: Antifungal activity against Aspergillus fumigatus GIMCC 3.19 assessed as fungal growth inhibition incubated for 24 hrs by two-fold serial dilution method. It counts as functional.
In data set [28] the test system is Aspergillus flavus. In words: Antifungal activity against Fluconazole-resistant Aspergillus flavus ATCC 16870R assessed as fungal growth inhibition. The format is functional.
Data set [29] deals with Aspergillus fumigatus. In words: Synergistic antifungal activity against Aspergillus fumigatus GIMCC 3.19 assessed as fractional inhibitory concentration index incubated for 24 hrs in presence of fluconazole by checkerboard broth microdilution method. The format is functional.
The nature of data set [30]: Cytotoxicity against human A549 cells assessed as cell viability at 8 ug/ml incubated for 24 hrs by CCK-8 assay relative to control. As to conditions: at 8 µg/mL, read-out: Activity. It counts as toxicity, cell-based.
In data set [31] the test system is Cryptococcus neoformans. In words: Synergistic antifungal activity against Cryptococcus neoformans ATCC 32719 assessed as fluconazole MIC incubated for 24 hrs in by checkerboard broth microdilution method. It counts as functional.
Data set [32] in a line: Cytotoxicity against human A549 cells assessed as cell viability at 32 ug/ml incubated for 24 hrs by CCK-8 assay relative to control. The format is toxicity, cell-based. The note with it: at 32 µg/mL, read-out: Activity.
The nature of data set [33]: Inhibition of Candida tropicalis ATCC 750 chitin synthase using UDP-GlcNAc as substrate incubated for 1 hr by absorbance based assay.
Data set [34] concerns Aspergillus fumigatus. In words: Synergistic antifungal activity against Aspergillus fumigatus GIMCC 3.19 assessed as fluconazole MIC incubated for 24 hrs in by checkerboard broth microdilution method. The format is functional.
In data set [35] the test system is Aspergillus fumigatus. Put plainly: Antifungal activity against Aspergillus fumigatus GIMCC 3.19 assessed as inhibition of cell wall synthesis incubated for 24 hrs in absence of sorbitol. It counts as functional.
Data set [36] deals with Candida albicans. Put plainly: Antifungal activity against Candida albicans ATCC 76615 assessed as fungal growth inhibition incubated for 24 hrs by two-fold serial dilution method. The format is functional.
Data set [37] can be described thus: Cytotoxicity against human A549 cells assessed as cell viability at 64 ug/ml incubated for 24 hrs by CCK-8 assay relative to control. As to conditions: at 64 µg/mL, read-out: Activity. The format is toxicity, cell-based.
The test system of data set [38] is Aspergillus fumigatus. Put plainly: Synergistic antifungal activity against Aspergillus fumigatus GIMCC 3.19 assessed as fractional inhibitory concentration index incubated for 24 hrs in presence of polyoxin B by checkerboard broth microdilution method. It counts as functional.
The subject of data set [39] is Aspergillus flavus. In words: Antifungal activity against Aspergillus flavus ATCC 16870 assessed as fungal growth inhibition incubated for 24 hrs by two-fold serial dilution method. The format is functional.
The test system of data set [40] is Candida tropicalis. Put plainly: Inhibition of Candida tropicalis ATCC 750 chitin synthase using […] as substrate at 300 ug/ml incubated for 1 hr by absorbance based assay relative to control. As to conditions: dose 300.0 µg/ml.
Data set [41] relates to Candida tropicalis. Put plainly: Non competitive inhibition of Candida tropicalis ATCC 750 chitin synthase using UDP-GlcNAc as substrate assessed as Vmax at 0.05 to 0.15 mM incubated for 1 hr by Michaelis-Menten analysis. As to conditions: dose 0.05-0.15 mM.
Data set [42] is described as follows: Non competitive inhibition of Candida tropicalis ATCC 750 chitin synthase using UDP-GlcNAc as substrate assessed as inhibition constant incubated for 1 hr by double reciprocal plot analysis.
Data set [43] in a line: Cytotoxicity against human A549 cells assessed as cell viability at 16 ug/ml incubated for 24 hrs by CCK-8 assay relative to control. The format is toxicity, cell-based. As to conditions: at 16 µg/mL, read-out: Activity.
The test system of data set [44] is Candida albicans. In words: Antifungal activity against Candida albicans ATCC 76615 assessed as inhibition of cell wall synthesis incubated for 24 hrs in presence of sorbitol. It counts as functional.
Data set [45] has as its system Cryptococcus neoformans. Put plainly: Synergistic antifungal activity against Cryptococcus neoformans ATCC 32719 assessed as polyoxin B MIC incubated for 24 hrs in by checkerboard broth microdilution method. The format is functional.

Each structure is given as a SMILES string. pIC50, pKi: −log10 of the molar value. Converted amounts (≈) assume the structure as drawn. The source made the active and inactive calls. The calls are words filed in the database; no cut-off is given here.

As for `O=C(Nc1cccc(C(F)(F)F)c1)C1CCN(CC(=O)N2CCC3(CCNC3=O)CC2)CC1`, the pIC50 – broadly, the IC50 on a negative log10 scale, so that one unit is a factor of ten – in data set [1] is 4.00.
Consider `O=C(/C=C/C(=O)Nc1ccc2c(c1)C(=O)NC1(CCSC1)N2)Nc1ccc([N+](=O)[O-])cc1` (stereo unspecified), for which the MIC (commonly the least concentration at which growth counts as inhibited) in the data set with Candida albicans [2] stood at 4 µg/mL (≈ 8.82 µM); with Aspergillus flavus [3], 64 µg/mL; in the data set on Cryptococcus neoformans [5], 4 µg/mL (≈ 8.82 µM); in the data set on Candida albicans [6] it was 8 µg/mL (≈ 17.6 µM); in the data set with Cryptococcus neoformans [7] it was 4 µg/mL (≈ 8.82 µM); in the data set on Aspergillus fumigatus [9], 8 µg/mL. The MIC is 32 µg/mL in the data set on Cryptococcus neoformans [10]; 8 µg/mL (≈ 17.6 µM) in the data set on Candida albicans [12]; 128 µg/mL with Aspergillus fumigatus [13]; 2 µg/mL in the data set on Candida albicans [15]; 4 µg/mL (≈ 8.82 µM) in the data set on Aspergillus flavus [16]; 1 µg/mL with Aspergillus flavus [21]. The MIC was found to be 0.5 µg/mL in the data set on Candida albicans [23]; 2 µg/mL in the data set with Aspergillus flavus [24]; 2 µg/mL (≈ 4.41 µM) in the data set with Cryptococcus neoformans [25]; 8 µg/mL (≈ 17.6 µM) in the data set with Aspergillus fumigatus [26]; 2 µg/mL (≈ 4.41 µM) in the data set with Aspergillus fumigatus [27]; 8 µg/mL (≈ 17.6 µM) in the data set on Aspergillus flavus [28]. The MIC with Cryptococcus neoformans [31] worked out at 2 µg/mL; with Aspergillus fumigatus [34] it was 4 µg/mL; with Aspergillus fumigatus [35] it was 8 µg/mL (≈ 17.6 µM); with Candida albicans [36], 1 µg/mL (≈ 2.21 µM); in the data set with Aspergillus flavus [39] it was 1 µg/mL (≈ 2.21 µM); in the data set with Candida albicans [44], 64 µg/mL. The MIC in the data set on Cryptococcus neoformans [45] came to 4 µg/mL. The “fractional inhibitory concentration index (FICI)” value in the data set with Aspergillus flavus [4] is recorded as 0.5; in the data set with Candida albicans [8], 0.5; in the data set on Cryptococcus neoformans [11], 0.75; in the data set on Candida albicans [14] it was 0.75; in the data set on Aspergillus flavus [17], 0.375; in the data set with Cryptococcus neoformans [20] it was 1. Also, the “fractional inhibitory concentration index (FICI)” value in the data set with Aspergillus fumigatus [29] was 0.75; in the data set with Aspergillus fumigatus [38] it was 1. In addition, the viability in the data set on A549 is on record as 62.2%. Besides, the viability at 24 h, 4 ug/ml in [18] is 95.1%. The inhibition – broadly, the share of the control response that was lost under treatment – in the data set on Candida tropicalis [19] is “Active”. Moreover, in the data set on Candida tropicalis [22], the Km (usually the concentration of substrate that gives half-maximal velocity) was determined as 5.18 mM. For the same molecule, in [30], the viability at 24 h, 8 ug/ml was found to be 94.3%. The viability at 24 h, 32 ug/ml in data set [32] came out at 87.8%. The molecule also had a pIC50 in data set [33] of 3.97. The viability at 24 h, 64 ug/ml in [37] stood at 67.1%. The same molecule yielded an inhibition in the data set with Candida tropicalis [40] of 82.3%. Also, the Vmax in the data set on Candida tropicalis [41] was found to be 1.21 deltaOD/hr. In addition, in [42], the pKi (in general, −log10 of the Ki, conventionally taken in molar units) is 3.80. The viability at 24 h, 16 ug/ml in data set [43] was 94%.
